Results: patent US20090275099A1 (priority 2004, published 2009)

Assays:
B cells = assay: collapse of ΔΨm detected with DiOC6(3); type: cell-based; details: by 5 hours
Experimental: To detect O2^−, cells are incubated with DHE (10 μM) for 30 min at 37° C. and are analyzed by flow cytometry to measure ethidium fluorescence. Flow analysis of mitochondrial transmembrane potential (ψm) is conducted by labeling cells with DiOC6(3) (20 nM) for 15 min at 37 degrees C. A positive control for disruption of ψm is established using carbonyl cyanide m-chlorophenylhydrazone (CCCP, 50 μM). Caspase activation assays are performed with FAM-VAD-fluoromethylketone. Processing of the substrate is evaluated by flow cytometry.
To characterize the death mechanism engaged by Bz-423, intracellular ROS, ΔΨm, cytochrome c release, caspase activation, and DNA fragmentation were measured over time (the results presented are for B cells but do characterize the response in many different cell types). The first event detected after exposure to Bz-423 is an increase in the fraction of cells that stain with dihyroethedium (DHE), a redox-sensitive agent that reacts specifically with O2^−.
Collapse of ΔΨm was detected using DiOC6(3), a mitochondria-selective potentiometric probe.

[1] = biological target: peripheral benzodiazepine receptor (“PBR”) (Homo sapiens, UniProt P30536); assay: binding to the peripheral benzodiazepine receptor
Sequence of peripheral benzodiazepine receptor (“PBR”) (P30536 whole entry, species assumed): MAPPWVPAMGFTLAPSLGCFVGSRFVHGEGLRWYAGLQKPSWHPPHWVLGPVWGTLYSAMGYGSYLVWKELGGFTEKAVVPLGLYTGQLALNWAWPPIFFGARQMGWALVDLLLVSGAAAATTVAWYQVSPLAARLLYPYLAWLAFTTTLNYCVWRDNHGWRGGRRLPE

Ramos cells = assay: cell culture cytotoxicity assays; type: cell-based, human; details: 10% FBS
Experimental: Like most 1,4-benzodiazepines, Bz-423 binds strongly to bovine serum albumin (BSA), which reduces the effective concentration of drug free in solution. For example, in tissue culture media containing 10% (v/v) fetal bovine serum (FBS), ca. 99% of the drug is bound to BSA. Therefore, cell culture cytotoxicity assays are conducted in media with 2% FBS to reduce binding to BSA and increase the free [Bz-423]. Under these conditions, the dose response-curve is quite sharp such that there is a limited concentration range at which Bz-423 is only partly effective. Since some benzodiazepines are known to have anti-proliferative properties, the effect of Bz-423 at concentrations <ED50 were carefully analyzed and observed that in addition to inducing apoptosis, Bz-423 prevented cell growth after 3 d in culture. In these low serum conditions, the cytotoxic and anti-proliferative effects overlapped making it difficult to study each effect independently. […] While higher amounts of drug may also block proliferation, it caused apoptosis well before the effects on proliferation could be observed.
To confirm the decrease in cell number relative to control cells after 3 d of treatment is due to decreased proliferation and not cell death balanced by proliferation, in addition to cell counting, cell divisions were studied. PKH-67 is a fluorescent probe that binds irreversibly to cell membranes and upon cell division is partitioned equally between the daughter cells, making it possible to quantify cell division by flow cytometry. Ramos cells stained with PKH67 and treated with Bz-423 had fewer cell divisions at sub-cytotoxic concentrations which confirmed that the decrease in cell number was due to anti-proliferative affects and not cell death. To determine if Bz-423 induced anti-proliferation was specific to Ramos cells, cell counting and cell cycle experiments were done in other B cell lines and cell lines derived from solid tumors.

[2] = system: human skin in organ culture; assay: RA-induced epidermal hyperplasia in human skin organ culture; details: RA-exposed skin, Bz-423 5 μg/ml
Excerpt: Replicate 2 mm full-thickness punch biopsies of sun-protected hip skin were obtained from young adult volunteers. The participation of human subjects in this project was approved by the University of Michigan Institutional Review Board, and all subjects provided written informed-consent prior to their inclusion in the study. Immediately upon biopsy, the tissue was immersed in culture medium consisting of Keratinocyte Basal Medium (KBM) (Cambrex Bioscience, Walkersville, Md.). KBM is a low-Ca^2+, serum-free modification of MCDB-153 medium optimized for high-density keratinocyte growth. It was supplemented with CaCl2 to bring the final Ca^2+ concentration to 1.4 mM. After transport to the laboratory on ice, the biopsies were incubated in a 24-well dish containing 250 μl of Ca^2+-supplemented KBM with or without additional treatments (e.g., RA and/or Bz-423). Cultures were incubated at 37° C. in an atmosphere of 95% air and 5% CO2. Other than to maintain the tissue in a minimal volume of medium, nothing further was done to ensure a strict air-liquid interface. Incubation was for 8 days, with change of medium and fresh treatments every second day. […] Average thickness values for untreated, retinoid exposed, and retinoid plus Bz-423-treated biopsies were determined. […]

[3] = biological target: mitochondrial F1F0-ATPase (Bos taurus, UniProt P13621+P32876); assay: biochemical; parameters: species or system bovine; details: for EC50: bovine SMPs

CN1C(=O)C(Cc2ccc3ccccc3c2)N=C(c2ccc(O)cc2)c2cc(Cl)ccc21 (centres unmarked) [Bz-423]
cells with collapse of ΔΨm (B cells): > 90% | Kd [1]: ~1 µM | amounts of drug with minimal cytotoxicity (Ramos cells): 10 to 15 µM | concentrations at which only apoptosis was observed (Ramos cells): > 20 µM | histologic finding at high concentration [2]: necrosis was observed | Ki [3]: 11 ± 0.4 µM | EC50 ([3]; ATPase activity EC50 (μM), Hydrolysis): 8.9 µM | EC50 ([3]; ED 50, inhibition of mitochondrial ATPase activity): ~5 µM
